Measured values from the supplement of paper PMC4862054.

Tests used:
Conditions in all cases: incubation time: 72 h
DU-4475 [1] = assay: drug sensitivity score (DSS), CellTiter-Glo (DSS (AUC-based score)); higher = stronger drug effect (viability inhibition or cytotoxicity); extreme values may be limits of the assay
Method in brief: (§1)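 The area under the fitted dose-response curve was used to calculate the drug sensitivity score. Cells from breast cancer lines were incubated for 72 h in 384-well plates with compound at 5 concentrations spaced 10-fold over a 10,000-fold range specific to each compound. Plates were read for CellTox Green and then CellTiter-Glo, and normalised to 0.1 % DMSO and a positive kill control.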

MDA-MB-453 [2] = assay: as above
Method in brief: as §1

CAL-148 [3] = assay: as above
Method in brief: as §1

HCC1599 = assay: as above
Method in brief: as §1

MDA-MB-231 [4] = assay: as above
Method in brief: as §1

CAL-85-1 [5] = assay: as above
Method in brief: as §1

CAL-51 [6] = assay: as above
Method in brief: as §1

CAL-120 = assay: as above
Method in brief: as §1

BT-474 = assay: normalised viability (% of control), CellTiter-Blue; higher = more viable cells (about 100 = DMSO control)
Method in brief: (§2)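 Each value is normalised viability at a single listed concentration of the series. Breast cancer cell lines in 384-well plates were incubated 72 h with compound and read by CellTiter-Blue fluorescence at 560/590 nm, with vehicle set to 100 and a positive kill control to 0 on every plate.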

MDA-MB-468 = assay: as above
Method in brief: as §2

SK-BR-3 = assay: as above
Method in brief: as §2

DU-4475 [7] = assay: as above
Method in brief: as §2

BT-549 = assay: as above
Method in brief: as §2

MDA-MB-453 [8] = assay: as above
Method in brief: as §2

Hs578T = assay: as above
Method in brief: as §2

CAL-148 [9] = assay: as above
Method in brief: as §2

HDQ-P1 = assay: as above
Method in brief: as §2

HCC1937 = assay: as above
Method in brief: as §2

MDA-MB-436 = assay: as above
Method in brief: as §2

MDA-MB-231 [10] = assay: as above
Method in brief: as §2

CAL-85-1 [11] = assay: as above
Method in brief: as §2

MFM-223 = assay: as above
Method in brief: as §2

CAL-51 [12] = assay: as above
Method in brief: as §2

HCC1143 = assay: as above
Method in brief: as §2

Nc1nc2[nH]cc(CCc3ccc(C(=O)N[C@@H](CCC(=O)O)C(=O)O)cc3)c2c(=O)[nH]1 [Pemetrexed]
Conditions | drug sensitivity score
CAL-51 [6] | 13.7
CAL-85-1 [5] | 13.4
CAL-120 | 1.52
CAL-148 [3] | 0
DU-4475 [1] | 0
HCC1599 | 0
MDA-MB-231 [4] | 6.23
MDA-MB-453 [2] | 0

normalised viability [%]
Conditions | 3 nM | 10 nM | 30 nM | 100 nM | 1000 nM | 10000 nM
BT-474 | – | 123 | – | – | 112 | 122
BT-549 | – | 90.8 | – | – | 90.7 | 79.6
CAL-51 [12] | 105 | – | 100 | 107 | – | –
CAL-85-1 [11] | 99.6 | – | 91 | 101 | – | –
CAL-148 [9] | 95 | – | 105 | 106 | – | –
DU-4475 [7] | 106 | – | 117 | 108 | – | –
HCC1143 | – | 90.8 | – | – | 77.4 | 72.2
HCC1937 | – | 89 | – | – | 93.4 | 85.5
HDQ-P1 | 110 | – | 100 | 101 | – | –
Hs578T | – | 124 | – | – | 106 | 82.5
MDA-MB-231 [10] | – | 97.5 | – | – | 98.9 | 92.4
MDA-MB-436 | – | 107 | – | – | 75.3 | 82.5
MDA-MB-453 [8] | 128 | – | 96 | 114 | – | –
MDA-MB-468 | – | 97.7 | – | – | 71.9 | 99.5
MFM-223 | – | 96.2 | – | – | 101 | 98.2
SK-BR-3 | – | 97.5 | – | – | 59.2 | 62.2

COc1cc([C@@H]2c3cc4c(cc3[C@@H](O[C@@H]3O[C@@H]5CO[C@@H](c6cccs6)O[C@H]5[C@H](O)[C@H]3O)[C@H]3COC(=O)[C@H]23)OCO4)cc(OC)c1O [Teniposide]
Conditions | drug sensitivity score
CAL-51 [6] | 12.1
CAL-85-1 [5] | 10.3
CAL-120 | 6.56
CAL-148 [3] | 15.7
DU-4475 [1] | 19.4
HCC1599 | 19
MDA-MB-231 [4] | 8.09
MDA-MB-453 [2] | 0

normalised viability [%]
Conditions | 3 nM | 10 nM | 30 nM | 100 nM | 1000 nM | 10000 nM
BT-474 | – | 118 | – | – | 113 | 50.8
BT-549 | – | 101 | – | – | 62.4 | 8.99
CAL-51 [12] | 98.2 | – | 78.2 | 43.4 | – | –
CAL-85-1 [11] | 103 | – | 89.7 | 94.5 | – | –
CAL-148 [9] | 103 | – | 69.3 | 61 | – | –
DU-4475 [7] | 82 | – | 67.8 | 28.1 | – | –
HCC1143 | – | 95.6 | – | – | 49.5 | 20.5
HCC1937 | – | 82.3 | – | – | 21 | 18.8
HDQ-P1 | 113 | – | 113 | 104 | – | –
Hs578T | – | 109 | – | – | 94.5 | 12.2
MDA-MB-231 [10] | – | 103 | – | – | 73.7 | 13.8
MDA-MB-436 | – | 92.1 | – | – | 55.1 | 23.6
MDA-MB-453 [8] | 135 | – | 92.8 | 109 | – | –
MDA-MB-468 | – | 99.1 | – | – | 54.2 | 15.6
MFM-223 | – | 99.3 | – | – | 84.4 | 13.1
SK-BR-3 | – | 105 | – | – | 20.9 | 7.84

COc1cc2nccc(Oc3ccc(NC(=O)Nc4cc(C)on4)c(Cl)c3)c2cc1OC [Tivozanib]
Conditions | drug sensitivity score
CAL-51 [6] | 0
CAL-85-1 [5] | 0
CAL-120 | 0
CAL-148 [3] | 0
DU-4475 [1] | 0
HCC1599 | 0
MDA-MB-231 [4] | 2.77
MDA-MB-453 [2] | 2.71

normalised viability [%]
Conditions | 3 nM | 10 nM | 30 nM | 100 nM | 1000 nM | 10000 nM
BT-474 | – | 111 | – | – | 96.4 | 62.8
BT-549 | – | 82.7 | – | – | 97.6 | 36.5
CAL-51 [12] | 100 | – | 103 | 96.3 | – | –
CAL-85-1 [11] | 100 | – | 107 | 103 | – | –
CAL-148 [9] | 95 | – | 96.6 | 91.8 | – | –
DU-4475 [7] | 103 | – | 101 | 119 | – | –
HCC1143 | – | 111 | – | – | 105 | 94.5
HCC1937 | – | 127 | – | – | 88.2 | 63
HDQ-P1 | 83.1 | – | 85.8 | 99.7 | – | –
Hs578T | – | 109 | – | – | 84.8 | 58.2
MDA-MB-231 [10] | – | 87.8 | – | – | 78.1 | 43.1
MDA-MB-436 | – | 101 | – | – | 97.1 | 72.4
MDA-MB-453 [8] | 98 | – | 92.9 | 96.3 | – | –
MDA-MB-468 | – | 103 | – | – | 111 | 51.1
MFM-223 | – | 93.6 | – | – | 55.3 | 40.2
SK-BR-3 | – | 99.7 | – | – | 99.1 | 68.9

CC1=C(/C=C/C(C)=C/C=C/C(C)=C/C(=O)O)C(C)(C)CCC1 [Tretinoin]
Conditions | drug sensitivity score
CAL-51 [6] | 0
CAL-85-1 [5] | 0
CAL-120 | 0
CAL-148 [3] | 2.48
DU-4475 [1] | 0
HCC1599 | 0.765
MDA-MB-231 [4] | 1.34
MDA-MB-453 [2] | 2.34

normalised viability [%]
Conditions | 3 nM | 10 nM | 30 nM | 100 nM | 1000 nM | 10000 nM
BT-474 | – | 129 | – | – | 111 | 115
BT-549 | – | 87.5 | – | – | 100 | 106
CAL-51 [12] | 106 | – | 94.6 | 99.6 | – | –
CAL-85-1 [11] | 85.3 | – | 92.2 | 95.7 | – | –
CAL-148 [9] | 81.6 | – | 89.9 | 87.8 | – | –
DU-4475 [7] | 78.4 | – | 93.1 | 83.7 | – | –
HCC1143 | – | 86.2 | – | – | 89.3 | 88.1
HCC1937 | – | 106 | – | – | 80.6 | 88.1
HDQ-P1 | 120 | – | 122 | 107 | – | –
Hs578T | – | 123 | – | – | 105 | 100
MDA-MB-231 [10] | – | 103 | – | – | 104 | 109
MDA-MB-436 | – | 97.9 | – | – | 81.6 | 95.5
MDA-MB-453 [8] | 121 | – | 103 | 105 | – | –
MDA-MB-468 | – | 99 | – | – | 117 | 113
MFM-223 | – | 92.6 | – | – | 89.7 | 84.3
SK-BR-3 | – | 103 | – | – | 66 | 45
